Reference: PubChem BioAssay (NCI)
“And” between values parts separate entries of the source, which are not always exact repeats. Equal entries are not always repeated.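 Test compounds were applied to cells in 96-well plates for 48 hours at 5 doses. The concentration for 50% growth inhibition is given as GI50. Definition used: TGI = concentration required for complete inhibition of growth.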

Legend:
Experiment in all cases: DTP human tumour cell line panel, 48 h
LOX IMVI melanoma = tested on: LOX IMVI melanoma
MALME-3M melanoma = tested on: MALME-3M melanoma
SN12C renal = tested on: SN12C renal
RPMI-8226 leukemia = tested on: RPMI-8226 leukemia
OVCAR-3 ovarian = tested on: OVCAR-3 ovarian
HL-60(TB) leukemia = tested on: HL-60(TB) leukemia
ACHN renal = tested on: ACHN renal
SK-MEL-28 melanoma = tested on: SK-MEL-28 melanoma
HCT-15 colon = tested on: HCT-15 colon
SR leukemia = tested on: SR leukemia

Row | SMILES | TGI (LOX IMVI melanoma) | TGI (MALME-3M melanoma) | TGI (SN12C renal) | TGI (RPMI-8226 leukemia) | TGI (OVCAR-3 ovarian) | TGI (HL-60(TB) leukemia) | TGI (ACHN renal) | TGI (SK-MEL-28 melanoma) | TGI (HCT-15 colon) | TGI (SR leukemia) | GI50 (LOX IMVI melanoma) | GI50 (MALME-3M melanoma) | GI50 (SN12C renal) | GI50 (RPMI-8226 leukemia) | GI50 (OVCAR-3 ovarian) | GI50 (HL-60(TB) leukemia) | GI50 (ACHN renal) | GI50 (SK-MEL-28 melanoma) | GI50 (HCT-15 colon) | GI50 (SR leukemia)
1 | CC1OC(n2cc(F)c(=O)[nH]c2=O)CCC1O (stereo unspecified) | > 100 µM | > 100 µM | > 100 µM | > 100 µM | > 100 µM | > 100 µM | > 100 µM | > 100 µM | > 100 µM | > 100 µM | – | – | – | – | – | – | – | – | – | –
2 | CN(C)CCNc1cc(-c2ccccc2)nc2ccccc12 | 14.4 µM | 27.7 µM | 44.1 µM | 21.8 µM | 33.1 µM | 22.3 µM | 38.9 µM | 28.5 µM | 62.5 µM | 8.37 µM | 3.6 µM | 12.6 µM | 6.55 µM | 4.09 µM | 8.9 µM | 4.58 µM | 4.42 µM | 13.4 µM | 4.48 µM | 2.72 µM
3 | Cc1cc(N(CCOS(C)(=O)=O)CCOS(C)(=O)=O)ccc1C=Nc1ccc(-c2nc(Cc3ccccc3)sc2C)cc1 | 20.2 µM | 26.8 µM | 26.3 µM | 31.8 µM | 19.6 µM | 28.9 µM | 3.51 µM | 35.3 µM | 35.2 µM | 18.5 µM | – | – | – | – | – | – | – | – | – | –
4 | CC1CCC2(C(=O)O)CCC3(C)C(=CCC4C5(C)CC(O)C(O)C(C)(CO)C5C(O)CC43C)C2C1C (stereo unspecified) | 42.3 µM | > 100 µM | 25.8 µM | 80.4 µM | 50.8 µM | 47.1 µM | > 100 µM | 69 µM | > 100 µM | > 63.1 µM | – | – | – | – | – | – | – | – | – | –
5 | OCc1ccc2[n+](c1)CCC1c3ccccc3NC21 (stereo unspecified) | > 300 µM | > 300 µM | > 300 µM | > 300 µM | > 300 µM | > 300 µM | > 300 µM | > 300 µM | > 300 µM | > 300 µM | – | – | – | – | – | – | – | – | – | –
6 | O=C1/C(=C/c2ccc(Br)cc2)C=C(c2ccccc2)N1CCc1ccccc1 | 10.8 µM | 6.64 µM | 20.4 µM | 86.4 µM | 7.34 µM | > 100 µM | 11 µM | 17 µM | > 100 µM | > 100 µM | 0.82 µM | 1.5 µM | 2.15 µM | 9.44 µM | 1.78 µM | 75.1 µM | 0.65 µM | 2.75 µM | 11.7 µM | 11.6 µM
7 | COC(=O)CCCCN=Cc1c(O)c(O)c(C(C)C)c2cc(C)c(-c3c(C)cc4c(C(C)C)c(O)c(O)c(C=NCCCCC(=O)OC)c4c3O)c(O)c12 | 2.43 µM | > 32.5 µM | > 32.5 µM | 20.3 µM | > 32.5 µM | 22.8 µM | > 32.5 µM | > 32.5 µM | > 32.5 µM | 5.72 µM | 0.822 µM | 1.47 µM | 1.14 µM | 0.616 µM | 1.02 µM | 1.13 µM | 1.15 µM | 1.77 µM | 1.06 µM | 0.917 µM
8 | Cc1cc(I)cc(CNCCCN2CCSCC2)c1O | 28.4 µM | 33.9 µM | > 100 µM | 30.8 µM | 27.7 µM | 35.8 µM | 33.8 µM | 32.4 µM | 35.9 µM | 28.5 µM | 14.6 µM | 17.3 µM | 41.4 µM | 12.4 µM | 14.1 µM | 15.8 µM | 17.5 µM | 17 µM | 17.7 µM | 10.4 µM
9 | CCOC(=O)/C=C(/C(=O)OCC)n1cc(Cl)c(=O)n(CC(=O)OCC)c1=O | 8.17 µM and 34.5 µM | 10.3 µM | 10.9 µM and 32.7 µM | 5.73 µM | 14.3 µM and 28.8 µM | 9.97 µM and 37.2 µM | 7.35 µM and 6.22 µM | 10.5 µM and 42.2 µM | 10.5 µM and 40.1 µM | 25 µM | 15.2 µM | – | – | – | 10.5 µM | 11.2 µM | 2.55 µM | 20.3 µM | 19 µM | –
10 | COc1ccc2c(c1)c(-c1nc(-c3cn(C)c4ncccc34)cs1)cn2CCCN1CCCCC1 | 3.09 µM | 3.25 µM | 3.17 µM | 4.64 µM | 3.02 µM | 3.62 µM | 3.06 µM | 3.29 µM | 2.96 µM | 3.77 µM | 1.65 µM | 1.64 µM | 1.71 µM | 2.19 µM | 1.59 µM | 1.81 µM | 1.69 µM | 1.76 µM | 1.53 µM | 1.81 µM
11 | CN1CCN(Cc2ccc(NC(=O)c3cncc(C#Cc4cnc(N)c5ccc(C#N)cc45)c3)cc2C(F)(F)F)CC1 | 0.546 µM | 0.0943 µM | 0.611 µM | 1.25 µM | 1.45 µM | 1.05 µM | 0.526 µM | 0.519 µM | 0.787 µM | 2.4 µM | 0.0203 µM | 0.0134 µM | 0.0218 µM | 0.0775 µM | 0.331 µM | 0.0483 µM | 0.0237 µM | 0.0273 µM | 0.122 µM | 0.0464 µM
12 | Cc1ccc2c(c1)C(=O)/C(=C/c1ncc([N+](=O)[O-])n1C)O2 | 1.23 µM | 4.37 µM | 6.55 µM | 5.63 µM | 6.55 µM | 9.71 µM | 9.11 µM | 7.29 µM | 8.78 µM | 0.431 µM | 0.404 µM | 1.8 µM | 1.77 µM | 1.6 µM | 2.53 µM | 1.88 µM | 0.489 µM | 2.34 µM | 0.369 µM | 0.0379 µM
13 | COc1ccc2ccc3c(c2c1)CN1CCc2cc(OC)c(OC)cc2C1C3 (stereo unspecified) | > 100 µM | > 100 µM | > 100 µM | > 100 µM | > 100 µM | > 100 µM | > 100 µM | > 100 µM | > 100 µM | > 100 µM | – | – | – | – | – | – | – | – | – | –
14 | N#CSCC1CC(O)(c2ccccc2)C(c2ccccc2)C(c2ccc(Cl)cc2)O1 (stereo unspecified) | 2.97 µM | 3.02 µM | 2.91 µM | 4.68 µM | 2.29 µM | 5.77 µM | 3.02 µM | 4.5 µM | 3.38 µM | 4.95 µM | 1.58 µM | 1.52 µM | 1.41 µM | 1.44 µM | 0.782 µM | 1.55 µM | 1.6 µM | 1.97 µM | 1.43 µM | 1.9 µM
15 | COC(=O)c1cc2c3ccccc3[nH]c2c2ncccc12 | > 100 µM | > 100 µM | > 100 µM | > 100 µM | > 100 µM | > 100 µM | > 100 µM | > 100 µM | > 100 µM | > 100 µM | 9.46 µM | > 100 µM | > 100 µM | 56.3 µM | > 100 µM | > 100 µM | 11.2 µM | 85.8 µM | 21.4 µM | 66.4 µM
16 | Cn1c(N2NC(=O)C(N=Nc3ccc(S(N)(=O)=O)cc3)C2=O)nc(-c2ccco2)c(C#N)c1=O (stereo unspecified) | 18.7 µM | 7.62 µM | > 50 µM | 30.2 µM | > 50 µM | 18.4 µM | > 50 µM | 45.5 µM | 22.1 µM | 28.4 µM | 8.08 µM | 0.0614 µM | > 50 µM | 4.98 µM | 13.4 µM | 5.04 µM | 15.6 µM | 11.7 µM | 8.44 µM | 2.89 µM
17 | CCCCC(=O)OCC1OC(n2cnc3c(=S)nc[nH]c32)C(OC(=O)CCCC)C1OC(=O)CCCC (stereo unspecified) | > 100 µM | > 100 µM | > 100 µM | > 100 µM | > 36.3 µM | > 100 µM | > 100 µM | > 100 µM | > 100 µM | > 100 µM | 1.11 µM | > 22.1 µM | 2.78 µM | 5.81 µM | 1.01 µM | 3.55 µM | 2.59 µM | 57.4 µM | 1.56 µM | 7.5 µM
18 | Cc1ccc(S(=O)(=O)N(CCOc2ccc(/C(N)=N/Cl)cc2)CCOc2ccc(/C(N)=N\Cl)cc2)cc1 | > 100 µM | 83.6 µM | > 100 µM | > 100 µM | 31 µM | 48.6 µM | > 100 µM | > 100 µM | > 100 µM | > 100 µM | 16.7 µM | 19.6 µM | 5.52 µM | 8.99 µM | 5.99 µM | 7.65 µM | > 100 µM | 25.7 µM | > 100 µM | 27.8 µM
